Assay results reported in US20060067959A1, “Compositions and methods for treatment of solar damage” (priority 2004, published 2006).

Tests used:
bovine pericardium [1] = assay: Melting temperature measurement of fixed pericardium; conditions: treated 48 hours, n = 3; PA 0.5% in PBS, GA 0.625% in PBS; untreated control 70 ± 1.0; in °C
Protocol: (§1) The fixed tissues and fresh tissues were assayed for their melting temperature by heating tissue strips (1×2 cm^2, n=3). The melting temperature was recorded when tissues started to shrink.

bovine tendon = target: T1, bovine tendon (Bos taurus, UniProt P02453+P02465); assay: Melting temperature measurement of fixed tendon; conditions: treated 48 hours, n = 3; PA 0.5% in PBS, GA 0.625% in PBS; untreated control 55 ± 0.5; in °C
T1 construct: Fresh bovine tendon; from tissue; host or cells: bovine tendon
Protocol: as §1

NIH 3T3 cells = system: NIH 3T3 cells
Protocol: NIH 3T3 cells were used in these studies. Cells were cultured in 24-well plates at a density of […] in 10% FBS/DMEM overnight. […] Cells were incubated for 72 hours before cell counting and morphological studies.

Fischer 344 rats = assay: Subcutaneous implantation of treated tissue
Text: Three-week-old Fischer 344 rats were obtained from Harlan Sprague Dawley, Inc. (Indianapolis, Ind.). NIH and University of Southern California IACUC guidelines for the care and use of laboratory animals were observed. […] The samples were retrieved after 3 and 6 weeks postoperation, and samples were processed for H&E and von Kossa staining, the latter to determine the extent of calcification.

bovine pericardium [2] = assay: In vitro enzymatic degradation by collagenase, H&E histology; conditions: 24 h digestion, 0.5% proanthocyanidin or 0.625% GA treated, fresh tissues disintegrated
Protocol: Tissue integrity was checked at the end of the incubation using a standard histological method (hematoxylin-eosin (H&E)). […] At predetermined intervals, 1.0 mL solution was taken out and filtered through an 0.45-μM cellulose filter to separate solubilized collagen from insolubilized matrix. The amount of solubilized collagen was determined after total acid hydrolysis in 6N HCl for 24 h at 100° C. by measuring hydroxyproline (R. Kultan et al., “Collagen Treated with (+)-Catechin Becomes Resistant to the Action of Mammalian Collagenase,” Experientia 37: 221-223 (1981)). The results are expressed as a percentage of the total collagen solubilized.

human skin fibroblasts = assay: Cell proliferation and collagen synthesis on treated pericardium; type: cell-based; conditions: discussion summary
Protocol: Discs, 15 mm in diameter, were punched out from PA-treated bovine pericardium and inserted into the bottom of 24-well plates, After washing and equilibrating with PBS, human skin fibroblasts, 8×10^4/well, third passage (kindly provided by Dr. Warren Garner, University of Southern California) were placed on top of the tissues. After 48 h of culture in 10% FBS/DMEM, the medium was changed to labeling medium ([^3H]thymidine, 10 μCi/mL, 0.5% FBS/DMEM) followed by a 24-h labeling period. Cells proliferation was assayed and collagen synthesis recorded as [^3H]OH-proline incorporation in a culture medium containing 25 μg/mL ascorbic acid, 25 μg/mL β-APN and 25 μCi/mL [^3H]proline in 0.5% FBS/DMEM after labeling for 48 h.

T1 sequence (P02453 162-1217 limits assumed): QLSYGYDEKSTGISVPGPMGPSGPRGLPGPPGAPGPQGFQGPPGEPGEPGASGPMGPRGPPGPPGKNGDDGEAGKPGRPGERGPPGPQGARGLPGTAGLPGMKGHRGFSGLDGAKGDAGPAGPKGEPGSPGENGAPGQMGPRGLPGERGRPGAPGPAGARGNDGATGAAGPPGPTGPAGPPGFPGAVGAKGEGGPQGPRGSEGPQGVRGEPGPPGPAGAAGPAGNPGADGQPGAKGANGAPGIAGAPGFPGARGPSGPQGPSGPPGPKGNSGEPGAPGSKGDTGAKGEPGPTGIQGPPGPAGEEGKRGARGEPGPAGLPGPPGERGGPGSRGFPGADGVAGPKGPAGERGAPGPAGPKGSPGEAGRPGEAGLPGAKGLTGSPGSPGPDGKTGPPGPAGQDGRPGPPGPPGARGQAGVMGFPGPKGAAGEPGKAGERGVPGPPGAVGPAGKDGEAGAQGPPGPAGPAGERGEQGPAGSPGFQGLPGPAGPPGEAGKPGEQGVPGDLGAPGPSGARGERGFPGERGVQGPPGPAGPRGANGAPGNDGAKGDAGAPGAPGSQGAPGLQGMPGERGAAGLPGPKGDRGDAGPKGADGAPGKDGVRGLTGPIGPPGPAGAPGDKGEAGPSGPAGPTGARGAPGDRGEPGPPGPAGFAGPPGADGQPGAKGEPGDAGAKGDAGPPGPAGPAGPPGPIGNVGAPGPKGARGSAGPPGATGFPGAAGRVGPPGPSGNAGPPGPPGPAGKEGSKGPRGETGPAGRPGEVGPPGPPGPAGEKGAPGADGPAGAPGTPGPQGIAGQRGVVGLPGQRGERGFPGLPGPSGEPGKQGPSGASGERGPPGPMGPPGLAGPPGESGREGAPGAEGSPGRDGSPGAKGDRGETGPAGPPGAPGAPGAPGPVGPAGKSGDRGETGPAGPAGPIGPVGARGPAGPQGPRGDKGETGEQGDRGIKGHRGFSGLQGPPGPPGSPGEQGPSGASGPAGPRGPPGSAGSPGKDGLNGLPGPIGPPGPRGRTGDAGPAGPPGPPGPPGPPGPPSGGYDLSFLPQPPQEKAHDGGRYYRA
T1 sequence (P02465 80-1117 limits assumed): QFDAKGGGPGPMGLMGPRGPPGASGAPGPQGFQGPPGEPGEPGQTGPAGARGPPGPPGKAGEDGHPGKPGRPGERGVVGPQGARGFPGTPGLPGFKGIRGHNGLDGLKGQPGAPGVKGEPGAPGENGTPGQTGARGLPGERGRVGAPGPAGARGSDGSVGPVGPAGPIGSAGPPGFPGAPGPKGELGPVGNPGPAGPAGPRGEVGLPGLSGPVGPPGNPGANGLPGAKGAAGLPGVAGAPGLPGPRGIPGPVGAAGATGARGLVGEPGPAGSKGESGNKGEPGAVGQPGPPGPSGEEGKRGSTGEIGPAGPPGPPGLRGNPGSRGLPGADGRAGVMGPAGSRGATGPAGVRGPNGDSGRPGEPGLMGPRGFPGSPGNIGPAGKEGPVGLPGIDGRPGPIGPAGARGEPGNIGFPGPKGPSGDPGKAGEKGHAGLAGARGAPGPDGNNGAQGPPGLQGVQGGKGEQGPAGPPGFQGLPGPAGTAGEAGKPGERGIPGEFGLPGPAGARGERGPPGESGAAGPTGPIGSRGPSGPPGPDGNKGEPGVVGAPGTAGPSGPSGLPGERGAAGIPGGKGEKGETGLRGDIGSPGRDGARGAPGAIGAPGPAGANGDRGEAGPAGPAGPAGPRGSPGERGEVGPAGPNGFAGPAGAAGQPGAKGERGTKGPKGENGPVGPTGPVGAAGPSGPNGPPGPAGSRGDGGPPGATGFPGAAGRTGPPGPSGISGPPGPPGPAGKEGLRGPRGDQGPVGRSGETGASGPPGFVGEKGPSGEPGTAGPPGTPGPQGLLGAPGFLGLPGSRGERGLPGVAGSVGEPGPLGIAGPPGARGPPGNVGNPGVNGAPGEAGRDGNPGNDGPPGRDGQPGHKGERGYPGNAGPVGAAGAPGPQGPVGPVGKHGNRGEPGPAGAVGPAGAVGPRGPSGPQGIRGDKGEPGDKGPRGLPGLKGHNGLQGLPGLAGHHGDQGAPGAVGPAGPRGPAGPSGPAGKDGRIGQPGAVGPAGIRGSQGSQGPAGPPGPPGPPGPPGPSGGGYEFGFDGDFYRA

**Q.** How did the “Melting temperature, Pericardium” value (bovine pericardium [1]) turn out when `O=CCCCC=O` [GA, glutaraldehyde] was run?
**A.** 94 ± 1.5

**Q.** And the “Melting temperature, Tendon” value (bovine tendon)?
**A.** 84 ± 1.0

**Q.** What about the “cytotoxicity (FIG. 1 legend)” value (NIH 3T3 cells) of the same molecule?
**A.** cytotoxicity

**Q.** What about the “cytotoxicity of treated tissue” value (NIH 3T3 cells) of the same molecule?
**A.** continues to be cytotoxic

**Q.** What about the “concentration at which cells could not survive” value (NIH 3T3 cells; mouse, 72 h) of the same molecule?
**A.** > 600 ng/mL

**Q.** And the “degradation of fixed tissue after subcutaneous implantation” value (Fischer 344 rats; periods ranging from 3 and 6 weeks (discussion))?
**A.** no apparent degradation

**Q.** What about the “calcification (Von Kossa staining)” value (Fischer 344 rats; rat, in vivo) of the same molecule?
**A.** dystrophic calcification

**Q.** What about the calcification after implantation (Fischer 344 rats; rat, in vivo) of the same molecule?
**A.** encourages dystrophic calcification

**Q.** And the “tissue reaction to implant” value (Fischer 344 rats; rat, in vivo)?
**A.** lesser inflammatory reaction

**Q.** And the implant degradation (Fischer 344 rats; six weeks postoperatively, control completely degraded)?
**A.** still intact

**Q.** And the implant integrity (Fischer 344 rats; three weeks postoperatively, control tissues start to disaggregate)?
**A.** retain their integrity

**Q.** And the “collagen fibril structure after collagenase digestion” value (bovine pericardium [2])?
**A.** remained intact

**Q.** And the “rate of collagen synthesis of fibroblasts” value (human skin fibroblasts)?
**A.** inhibits collagen synthesis
